Data taken from patent US20130136722A1, “Methods of Ex Vivo Expansion of Blood Progenitor Cells, and Generation of Composite Grafts” (The Board of Trustees of The University of Illinois, priority 2011, published 2013).
“And” between values parts separate entries of the source, which are not always exact repeats. Equal entries are not always repeated.

What was measured:
[1] = tested on: cobblestone area-forming cells (CAFC); assay: Cobblestone area-forming cell (CAFC) assay, limiting dilution on M2-10B4 stromal cells; type: cell-based, human; settings: for CAFC Frequency/10^4 cells: limiting dilution, mean ± SEM of three independent experiments
Procedure: Colony-forming cell (CFC) were assayed by plating 5×10^2 cells per dish in semisolid media and were counted after 14 days as described (Araki et al., 2009, Id.). The number of cobble stone area-forming cell (CAFC) was quantitated in primary and expanded CD34+ cells by plating in limiting dilution onto irradiated M2-10B4 stromal cells as described (Araki et al., 2009, Id.; Conneally et al., 1997, Proc. Natl. Acad. Sci. USA. 94: 9836-9841; Taswell, 1981, J. Immunol. 126: 1614-1619).
In order to determine the a correlation between expansion of CD34^+CD90^+ cells and their functional potential as pluripotent hematopoietic stem cells, in vitro functional assays were performed, including assessment of colony-forming cells (CFC), a short-term assay, and cobblestone-area forming cells (CAFC), a long-term assay.

[2] = tested on: NOD/SCID mice; assay: SCID repopulating cell (SRC) frequency by limiting dilution analyses; type: in vivo, mouse; settings: for (# of NOD/SCID mice engrafted)/(# of mice transplanted): Day 9
Procedure: Immunodeficient nonobese diabetic/ltsz-scid/scid (NOD/SCID) mice were purchased from Jackson Laboratories (Bar Harbor, Me.) and transplantation assays were performed as described (Araki et al., 2009, Id.; Araki et al., 2007, Id.; Taswell, 1981, Id.). Equal number of primary CD34^+ cells or the progeny of an equal initial number of CD34^+ cells following culture were injected per mouse intravenously. Mice were sacrificed 8 weeks after transplantation, and bone marrow (BM) cells from each mouse were analyzed by flow cytometry to detect multilineage human cell engraftment.
The frequency of SCID-repopulating cells (SRCs) present in VPA-expanded, CD34^+CD90^+ cord blood-derived stem cells was quantitated in comparison to unmanipulated primary cord blood cells by in vivo xeno-transplant studies using limiting dilution analyses as described previously (Conneally et al., 1997, Proc. Natl. Acad. Sci. 94: 9836-41; Bhatia et al., 1997, J Exp Med. 186: 619-24; Wang et al., 1997, Blood 89: 3919-24; Chute et al., 2005, Blood 105: 576-83). The frequency of SRC was 1 in 22,000 (95% Confidence Interval: 1/11,722-1/41,293) in primary CD34^+CD90^+ cells, and 1 in 21,720 (95% Confidence Interval: 1/11,160-1/42,269) in the VPA expanded cultures (Table 5 and FIG. 2E).

[3] = tested on: NOD/SCID mice; assay: In vivo bone marrow homing assay; set-up: species or system mouse; settings: expanded CB cells homing to bone marrow; FIG. 2F
Procedure: In order to assess whether the lower SRC frequency, or lower hematopoietic chimerism, detected following transplantation of VPA expanded cells was due to a defect in the homing of transplanted cells to the host bone marrow, an in vivo homing assay was performed in NOD/SCID mice.

[4] = tested on: NOD/SCID mice; assay: Serial (secondary) transplantation of expanded CB cells; type: in vivo, mouse
[5] = tested on: LTB4; assay: LTB4 in conditioned media by AChE competitive ELISA; type: cell-based, human; settings: day 9 of expansion culture; FIG. 4E
Procedure: The concentration of LTB4 in conditioned media was measured by an acetylcholine esterase competitive enzyme immunoassay following the manufacturer's instructions (Cayman Chemical Co. Ann Arbor, Mich.). Absorbance at 405 nm was read using ELx 800, instrument (Bio Tek Instruments Inc.). Results were calculated using mean values of triplicate wells with standard errors (SE).

[6] = tested on: promoter CpG sites (GATA1, S100A8, Cyp11A1); assay: Pyrosequencing of promoter CpG sites of genes in expanded CD34+ cells; type: cell-based, human; settings: FIG. 5C
Procedure: DNA methylation analysis was performed by EpigenDx (Worcester, Mass.) using quantitative pyrosequencing and the PSQ-HS96 system according to standard procedures (Warren et al., 2010, Cell Stem Cell. 7: 618-630). Primers were developed for the CpG sites near the promoter area as detailed in Table 3. Briefly, genomic DNA was isolated from primary or CMA expanded enriched CD34^+ cells using the Blood and Cell Culture DNA kit (Qiagen, Valencia Calif.). Genomic DNA was bisulfite treated by an EZ Methylation Kit (Zymo Research, Irvine, Calif.), and biotinylated gene specific primers or long interspersed nucleotide element 1 (LINE-1) primers were used to amplify regions of interest for analysis as described (Bhatia et al., 1997, J Exp Med. 186: 619-624).
Genomic DNA was isolated from primary, 5azaD/TSA or VPA expanded CD34^+ cells following culture using the Blood and Cell Culture DNA kit (Qiagen, Valencia Calif.). Genomic DNA was bisulfite treated by an EZ Methylation Kit (Zymo Research, Irvine, Calif.).

[7] = tested on: histone H4 acetylation of gene promoter sites; assay: Chromatin immunoprecipitation (ChIP) assay with anti-acetyl-Histone H4 antibody; type: cell-based, human; settings: FIG. 6B
Procedure: The ChIP assay was carried out using a commercial Assay kit using the manufacturer's protocol (Millipore; Billerica, Mass.) as described (Sankar et al., 2008, Oncogene 27: 5717-5728). Briefly, after 72 hours of culture CD34^+ cells were crosslinked with formaldehyde and the cell pellet was lysed and sonicated to produce genomic fragments and immunoprecipitated using anti-acetyl-Histone H4 antibody (Millipore). Amplified PCR fragments were then analyzed on a 1.2% agarose gel.
In order to examine whether the alteration of gene expression observed in CD34^+ cells during ex vivo expansion culture with CMA was due to changes in histone acetylation, acetylation of histone H4 was analyzed for several gene promoter sites including HoxB4, Bmi1, GATA2, PU.1, as well as GAPDH as a control. Standard chromatin immunoprecipitation (ChIP) assays were used employing an antibody specific to acetylated histone H4 as described previously (Sankar et al., 2008, Oncogene 27:5717-28). […] More promoter fragments for Bmi1, HoxB4, and GATA2, and less fragments for PU.1 were amplified in 5azaD/TSA expanded CD34^+ cells as compared to control and VPA-expanded CD34^+ cells (FIG. 6B).

SMILES: CCCC(CCC)C(=O)O [VPA, valproic acid]
- fold expansion of long term (5 weeks) CAFC ([1]; FIG. 2B): 8.4±1.6 fold
- CAFC Frequency/10^4 cells [1]: 14.67±0.74 /10^4 cells
- CAFC Frequency/10^4 cells ([1]; listed as VPA Alone): 14.67 ± 0.74 /10^4 cells
- (# of NOD/SCID mice engrafted)/(# of mice transplanted) ([2]; 2,000 CD34+CD90+ cells used to initiate ex vivo culture): 0/7
- (# of NOD/SCID mice engrafted)/(# of mice transplanted) ([2]; 5,000 CD34+CD90+ cells used to initiate ex vivo culture): 2/5
- (# of NOD/SCID mice engrafted)/(# of mice transplanted) ([2]; 10,000 CD34+CD90+ cells used to initiate ex vivo culture): 2/7
- (# of NOD/SCID mice engrafted)/(# of mice transplanted) ([2]; 20,000 CD34+CD90+ cells used to initiate ex vivo culture): 5/8
- SRC numbers during ex-vivo culture (in words) ([2]; mouse, in vivo): maintained SRC numbers
- homing efficiency [3]: 1.68%
- Secondary mouse BM chimerism (% human) ([4]; 10-30 × 10^6 unseparated BM cells from primary mouse, sacrificed 7 weeks later, individual mice): Not Detectable
- Primary mouse BM chimerism (% human) ([4]; progeny of 1 × 10^4 primary CB cells treated ex vivo for 9 days, individual mice): 0.60 % human and 1.0 % human (2×) and 0.30 % human and 5.6 % human
- secondary hosts engrafted ([4]; serial transplantation from primary recipients): none of the 5
- level of leukotriene B4 (LTB4) in conditioned medium [5]: increased compared to control
- methylation levels of S100A8 and Cyp11A1 gene promoter sites [6]: almost completely lacked any changes in methylation
- methylation of the GATA1 gene promoter [6]: minimal demethylation
- histone H4 acetylation of the promoter regions of HoxB4, Bmi1 and GATA2 genes in contrast to control cultures ([7]; CD34+ cells after 72 hours of culture): Increased histone H4 acetylation
- levels of histone H4 acetylation for Bmi1 and HoxB4 genes compared to control cultures [7]: intermediate levels
